Source: the supplement of paper PMC10307832

Experiments:
Assay in all cases: relative viability (nuclei count vs DMSO), 5 days (fraction); higher = more cells survive
[1] = test system: NCI-H661
In short: (§1)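 For relative viability, nuclei counts in treated wells were divided by those in vehicle wells. Lung cancer cell lines had been pin-tool dosed in 1536-well plates the day after seeding and cultured for 5 days, then fixed and stained in one step (final 0.05% Triton X-100, 1% formaldehyde, 1 ug/ml Hoechst) and imaged at 4×. Doses were one drug alone or a fixed anchor-drug dose plus five library-drug doses (not always all listed) in √10 steps, and values are duplicate-plate medians.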

[2] = test system: A549
In short: as §1

[3] = test system: Calu-6
In short: as §1

[4] = test system: NCI-H2342
In short: as §1

[5] = test system: NCI-H1703
In short: as §1

[6] = test system: HCC-78
In short: as §1

[7] = test system: NCI-H2009
In short: as §1

[8] = test system: NCI-H1623
In short: as §1

[9] = test system: EBC-1
In short: as §1

[10] = test system: NCI-H1299
In short: as §1

[11] = test system: IA-LM
In short: as §1

[12] = test system: NCI-H460
In short: as §1

[13] = test system: NCI-H522
In short: as §1

`CCN(CC)CCCCNc1ncc2cc(-c3cc(OC)cc(OC)c3)c(NC(=O)NC(C)(C)C)nc2n1` + COc1cc2c(Oc3ccc(NC(=O)C4(C(=O)Nc5ccc(F)cc5)CC4)cc3F)ccnc2cc1OCCCN1CCOCC1 [Foretinib] (partner 0.25 µM) was tested, and the relative viability ([1]; first compound 0.01 µM) was 1.07, the relative viability ([1]; first compound 0.03162 µM) was 1.04 and the relative viability ([1]; first compound 0.1 µM) was 1.03. It also gave a relative viability ([1]; first compound 0.3162 µM) of 1.07, a relative viability ([1]; first compound 1 µM) of 1.02 and a relative viability ([2]; first compound 0.01 µM) of 1.07. The relative viability ([2]; first compound 0.03162 µM) was 0.841, the relative viability ([2]; first compound 0.1 µM) was 1.1 and the relative viability ([2]; first compound 0.3162 µM) was 1.17. The relative viability ([2]; first compound 1 µM) was 0.758, the relative viability ([3]; first compound 0.01 µM) was 0.97 and the relative viability ([3]; first compound 0.03162 µM) was 0.994. The relative viability ([3]; first compound 0.1 µM) was 1.02, the relative viability ([3]; first compound 0.3162 µM) was 0.902 and the relative viability ([3]; first compound 1 µM) was 0.86. For the same compound, the relative viability ([4]; first compound 0.01 µM) was 1.19, the relative viability ([4]; first compound 0.03162 µM) was 1.23 and the relative viability ([4]; first compound 0.1 µM) was 1.19. The relative viability ([4]; first compound 0.3162 µM) was 1.03, the relative viability ([4]; first compound 1 µM) was 1 and the relative viability ([5]; first compound 0.01 µM) was 0.314. The relative viability ([5]; first compound 0.1 µM) was 0.388, the relative viability ([5]; first compound 0.3162 µM) was 0.308 and the relative viability ([5]; first compound 1 µM) was 0.373. It also gave a relative viability ([6]; first compound 0.01 µM) of 0.583, a relative viability ([6]; first compound 0.03162 µM) of 0.53 and a relative viability ([6]; first compound 0.1 µM) of 0.586. It also gave a relative viability ([6]; first compound 0.3162 µM) of 0.55, a relative viability ([6]; first compound 1 µM) of 0.56 and a relative viability ([7]; first compound 0.01 µM) of 1.33. It also gave a relative viability ([7]; first compound 0.03162 µM) of 1.25, a relative viability ([7]; first compound 0.1 µM) of 1.22 and a relative viability ([7]; first compound 0.3162 µM) of 1.29. For the same compound, the relative viability ([7]; first compound 1 µM) was 1.18, the relative viability ([8]; first compound 0.01 µM) was 0.859 and the relative viability ([8]; first compound 0.03162 µM) was 0.674. The relative viability ([8]; first compound 0.1 µM) was 0.876, the relative viability ([8]; first compound 0.3162 µM) was 0.945 and the relative viability ([8]; first compound 1 µM) was 0.874. It also gave a relative viability ([9]; first compound 0.01 µM) of 0.103, a relative viability ([9]; first compound 0.03162 µM) of 0.111 and a relative viability ([9]; first compound 0.1 µM) of 0.12. For the same compound, the relative viability ([9]; first compound 0.3162 µM) was 0.104, the relative viability ([9]; first compound 1 µM) was 0.106 and the relative viability ([10]; first compound 0.01 µM) was 1.12. It also gave a relative viability ([10]; first compound 0.03162 µM) of 1.1, a relative viability ([10]; first compound 0.1 µM) of 1.16 and a relative viability ([10]; first compound 0.3162 µM) of 1.08. For the same compound, the relative viability ([10]; first compound 1 µM) was 1.02, the relative viability ([11]; first compound 0.01 µM) was 1.19 and the relative viability ([11]; first compound 0.03162 µM) was 1.33. For the same compound, the relative viability ([11]; first compound 0.1 µM) was 1.17, the relative viability ([11]; first compound 0.3162 µM) was 1.16 and the relative viability ([11]; first compound 1 µM) was 1.23. For the same compound, the relative viability ([12]; first compound 0.01 µM) was 0.972, the relative viability ([12]; first compound 0.03162 µM) was 1.13 and the relative viability ([12]; first compound 0.1 µM) was 1.03. It also gave a relative viability ([12]; first compound 0.3162 µM) of 1.04 and a relative viability ([12]; first compound 1 µM) of 1.18.
Compound `CCN(CC)CCCCNc1ncc2cc(-c3cc(OC)cc(OC)c3)c(NC(=O)NC(C)(C)C)nc2n1` + N=C(N)NC(=N)NCCc1ccccc1 [Phenformin] (partner 250 µM) has a relative viability ([1]; first compound 0.01 µM) of 0.289, a relative viability ([1]; first compound 0.03162 µM) of 0.297 and a relative viability ([1]; first compound 0.1 µM) of 0.27. For the same compound, the relative viability ([1]; first compound 0.3162 µM) was 0.291, the relative viability ([1]; first compound 1 µM) was 0.278 and the relative viability ([13]; first compound 0.01 µM) was 0.726. The relative viability ([13]; first compound 0.03162 µM) was 0.768, the relative viability ([13]; first compound 0.1 µM) was 0.582 and the relative viability ([13]; first compound 0.3162 µM) was 0.688. For the same compound, the relative viability ([13]; first compound 1 µM) was 0.633, the relative viability ([2]; first compound 0.01 µM) was 0.198 and the relative viability ([2]; first compound 0.03162 µM) was 0.19. The relative viability ([2]; first compound 0.1 µM) was 1.04, the relative viability ([2]; first compound 0.3162 µM) was 0.247 and the relative viability ([2]; first compound 1 µM) was 0.12. For the same compound, the relative viability ([4]; first compound 0.01 µM) was 0.578, the relative viability ([4]; first compound 0.03162 µM) was 0.582 and the relative viability ([4]; first compound 0.1 µM) was 0.56. The relative viability ([4]; first compound 0.3162 µM) was 0.664, the relative viability ([4]; first compound 1 µM) was 0.648 and the relative viability ([6]; first compound 0.01 µM) was 0.646. For the same compound, the relative viability ([6]; first compound 0.03162 µM) was 0.732, the relative viability ([6]; first compound 0.1 µM) was 0.663 and the relative viability ([6]; first compound 0.3162 µM) was 0.805. For the same compound, the relative viability ([6]; first compound 1 µM) was 0.631, the relative viability ([7]; first compound 0.01 µM) was 0.471 and the relative viability ([7]; first compound 0.03162 µM) was 0.462. It also gave a relative viability ([7]; first compound 0.1 µM) of 0.451, a relative viability ([7]; first compound 0.3162 µM) of 0.456 and a relative viability ([7]; first compound 1 µM) of 0.357. It also gave a relative viability ([8]; first compound 0.01 µM) of 0.602, a relative viability ([8]; first compound 0.03162 µM) of 0.49 and a relative viability ([8]; first compound 0.1 µM) of 0.626. It also gave a relative viability ([8]; first compound 0.3162 µM) of 0.608, a relative viability ([8]; first compound 1 µM) of 0.577 and a relative viability ([12]; first compound 0.01 µM) of 0.536. For the same compound, the relative viability ([12]; first compound 0.03162 µM) was 0.567, the relative viability ([12]; first compound 0.1 µM) was 0.53 and the relative viability ([12]; first compound 0.3162 µM) was 0.68. The relative viability ([12]; first compound 1 µM) was 0.329.
